{"source": "patent US6861439B2", "about": "“Treatment of cerebrovascular disease” (Medicure International, Inc., priority 2000, dated 2005)", "key": {"[1]": {"tested_on": "rat model of cerebral ischemia", "assay": "Rat model of cerebral ischemia: measurement of infarct damage (TTC staining)", "type": "in vivo, Male Wistar rats", "conditions": "for Infarct Volume (mean): post-ischemia PLP iv, 24 hours after ischemia, control group 37.74%", "method": "(§1) Male Wistar rats (250-300 g) were housed in the animal facility for a period of 12 days and given food and water ab libitum. Animals were randomly assigned to groups (n=8/group) of a) control group b) post-ischemia PLP treatment 10 mg/kg c) post-ischemia PLP treatment […] and d) post-ischemia PLP treatment 40 mg/kg.\n(§2) The rats of each group were anaesthetized to surgical depth initially with 3% halothane, and maintained with 1.5% halothane in a 70% N2O/30% O2 (vol./vol.) mixture. Animal core temperature was maintained at approx 37° C. using a heating pad and an overhead lamp. Temperature was measured with a rectal thermometer.\n(§3) A midline longitudinal incision of approx 2.0 cm was made in the cervical area. Both common carotid arteries (CCA) were dissected from the surrounding tissue and both the right internal carotid artery (ICA) and the right external carotid artery (ECA) were exposed to a maximal length. Branches of the right ECA will be occluded with electro-coagulation and the distal portion ligated. The right CCA and ICA were occluded by temporary clamping, after which the distal end of the ECA was cut to allow catheter insertion. A loose 5.0 silk suture was tied around the proximal right ECA. A PE-50 catheter [Becton-Dickinson, N.J., USA] (0.3 mm O.D at the tip of the catheter and O.D. 0.97 in the catheter body) was attached to a […] filled with 0.5 ml bovine alpha-thrombin (Thrombostat, Parke-Davis).\n(§4) The catheter was introduced into the ICA from the ECA and CCA via a small puncture and the silk suture tied around the ECA to prevent bleeding and dislodgement. This was followed by the removal of vascular clips from the ICA and CCA. 10 ul of blood was withdrawn into the catheter and kept in place for 15 minutes for formation of a thrombin clot. Subsequently 17 mm of the catheter (calculated from the puncture site) was gently advanced through the ECA and extra-cranial portion of the ICA to approximately 2 mm from the origin of the middle cerebral artery. After temporary occlusion of the CCAs bilaterally to slow blood flow, the clot was introduced into the ICA. The clip of the contralateral CCA was removed five minutes later and the catheter was removed 10 minutes after the clot introduction. The ipsilateral ICA was then ligated prior to the removal of the clip on the right CCA, 15 minutes after clot injection. The incision was then sutured and the animals allowed to recover from anesthesia whereupon they were given free access to food & water.\nThe infarcted brain tissue in the right MCA territory was differentiated using the 2,3,5-triphenyltetrazolium chloride (TTC) staining method. The rats were perfused transcardially with 120 ml 0.9% normal saline under deep anaesthesia, 24 hours after ischemia. The brain was then removed and cooled in ice-cold saline for 5 minutes after which it was dissected in the coronal plane at 2 mm intervals using a rat brain matrix and stored in 10% buffered formalin for fixing. The stained sections were colour scanned within seven days. The 2 mm thick coronal sections were placed directly on the scanning screen and scanned from rostral to caudal ends, with attention paid to soaking up formalin to prevent shadows, and the use of a black background.\nImage contrast and brightness was adjusted with Photoshop 4.0; measurements were made by manually outlining the margins of infarct areas in each section. The total volume of infarction was determined by integrating the […] of the eight chosen sections. Values were corrected for any brain edema.\n(§5) Control animals were given 3 mL saline (iv) at 2 hours following cerebral ischemia. The pre-ischemia treatment group was given PLP (10 mg/kg, iv in 3 mL) over 30 minutes 1 hour prior to ischemic insult. The post-ischemia groups received PLP at […] iv at 2 hours following cerebral ischemia.\nAll data was expressed as mean±SD. […]"}, "[2]": {"tested_on": "rat model of cerebral ischemia", "assay": "Rat model of cerebral ischemia: seizures, hemorrhage and mortality", "conditions": "for mortality (number of animals): n=8/group, 2 in control group"}, "[3]": {"tested_on": "rat model of cerebral ischemia", "assay": "Rat model of cerebral ischemia: neurological deficit evaluation (neurobehavioral scores)", "type": "in vivo, Male Wistar rats", "conditions": "scale 0-4, evaluation at 2 and 24 hours after thrombus", "method": "as §1, §2, §3, §4\nNeurological deficit evaluation was conducted at 2 and 24 hours after injection of thrombus. The neurological findings were scored on a four-point grade scale: no observable deficit—0; forelimb flexion—1; forelimb flexion and decreased resistance to lateral push—2; forelimb flexion, decreased lateral push resistance and unilateral circling in three successive trials—3. A score of 4 was given to animals with a score of 3 plus decreased consciousness.\nas §5\nAll data was expressed as mean±SD. Two-tailed paired Students t-tests were used to compare differences between values obtained before and after treatment. Statistical analysis of more than two groups of animals were performed with ANOVA, with subsequent individual comparisons by Scheffe's test. Differences were considered significant at […]."}, "[4]": {"conditions": "in water, alcohol, and ether; cited from earlier work"}}}
{"molecule": "Cc1ncc(COP(=O)(O)O)c(C=O)c1O", "note": "[PLP, 3-hydroxy-2-methyl-5-[(phosphonooxy)methyl]-4-pyridine-carboxaldehyde]", "values": [{"measurement": "Infarct Volume (mean)", "setting": "[1]; 10 mg/kg treatment group", "value": "28.25%,"}, {"measurement": "Infarct Volume (mean)", "setting": "[1]; 20 mg/kg treatment group", "value": "27.4%,"}, {"measurement": "infarct reduction, statistical significance", "setting": "[1]; 40 mg/kg dose", "value": "statistically significant"}, {"measurement": "Infarct Volume (mean)", "setting": "[1]; 40 mg/kg treatment group", "value": "19.3%,"}, {"measurement": "therapeutic effect on infarct size and neurobehavioral activity", "setting": "[1]; 10, 20, 40 mg/kg", "value": "dose-dependant therapeutic effect"}, {"measurement": "anti-ischemic effect in the rat model of ischemia and reperfusion injury", "setting": "[1]; overall conclusion", "value": "demonstrates anti-ischemic effects and benefits against ischemia reperfusion injury"}, {"measurement": "mortality (number of animals)", "setting": "[2]; 10 mg/kg group", "value": 3}, {"measurement": "mortality (number of animals)", "setting": "[2]; 20 mg/kg group", "value": 1}, {"measurement": "mortality (number of animals)", "setting": "[2]; 40 mg/kg group", "value": 0}, {"measurement": "number of seizures", "setting": "[2]; the three groups (10, 20, 40 mg/kg)", "value": "no difference"}, {"measurement": "risk of hemorrhage", "setting": "[2]; with higher doses", "value": "did not increase"}, {"measurement": "Neurobehavioral score, final (decreased to)", "setting": "[3]; 10 mg/kg group", "value": 3}, {"measurement": "Neurobehavioral score, initial (decreased from)", "setting": "[3]; 10 mg/kg group", "value": 3.6}, {"measurement": "Neurobehavioral score, final (decreased to)", "setting": "[3]; 20 mg/kg group", "value": 3}, {"measurement": "Neurobehavioral score, initial (decreased from)", "setting": "[3]; 20 mg/kg group", "value": 3.8}, {"measurement": "Neurobehavioral score, final (decreased to)", "setting": "[3]; 40 mg/kg group, p<0.001", "value": 1.9}, {"measurement": "Neurobehavioral score, initial (decreased from)", "setting": "[3]; 40 mg/kg group, p<0.001", "value": 3.8}, {"measurement": "solubility", "setting": "[4]", "value": "essentially insoluble"}]}
